One series has as its target T1, Bcl-xL (Homo sapiens, UniProt Q07817).
T1 construct: GST
Put plainly: Protein-ligand binding experiment for Bcl-xL (SEC-LC-MS affinity selection). As to conditions: 1 μM SP-4 and 5 μM Bcl-xL in PBS, 2.5% DMSO, 60 min at room temperature. As for the experimental part: Protein-ligand binding experiments for Bcl-xL. Simple protein-ligand binding experiments were conducted using the following representative procedure outlined for a simple system-wide control experiment using 1 μM SP-4 and 5 μM Bcl-xL. A 1 μL DMSO aliquot of a 40 μM stock solution of SP-4 is dissolved in 19 μL of PBS (Phosphate-buffered saline: 50 mM, pH 7.5 Phosphate buffer containing 150 mM NaCl). The resulting solution is mixed by repeated pipetting and clarified by centrifugation at 10 000 g for 10 min. To a 4 μL aliquot of the resulting supernatant is added 4 μL of 10 μM BCL-xL in PBS. Each 8.0 μL experimental sample thus contains 40 pmol (1.5 μg) of protein at 5.0 μM concentration in PBS plus 1 μM SP-4 and 2.5% DMSO. Duplicate samples thus prepared for each concentration point are incubated for 60 min at room temperature, and then chilled to 4° C. prior to size-exclusion chromatography-LC-MS analysis of 5.0 μL injections. Samples containing a target protein, protein-ligand complexes, and unbound compounds are injected onto an SEC column, where the complexes are separated from non-binding component by a rapid SEC step. The SEC column eluate is monitored using UV detectors to confirm that the early-eluting protein fraction, which elutes in the void volume of the SEC column, is well resolved from unbound components that are retained on the column. […]

The next series concerns the target GST-Mcl-1. Put plainly: Kd. On the procedure: Table printed on a drawing sheet, Figure 4
The patent's description of the figure: FIG. 4 depicts binding properties to GST-Mcl-1 of SP-4 and SP-54 peptidomimetic macrocycles.
First copying reader's note: Kd values belong to the adjacent saturation binding plot (stapled peptides + GST-Mcl-1, 2 µM receptor, 1x PBS + 5 mM CHAPS, 2.5% DMSO).
Where the first naming reader finds the target: description_of_the_figure: FIG. 4 depicts binding properties to GST-Mcl-1 of SP-4 and SP-54 peptidomimetic macrocycles.

Series [1] in a line: Pharmacokinetics of SP-4 and SP-54 in Rats following IV dose. An excerpt:
Table printed on a drawing sheet, Figure 19
Title: Pharmacokinetics of SP-4 and SP-54 in Rats following IV dose
The patent's description of the figure: FIG. 19 illustrates the pharmacokinetic properties of SP-4 and SP-54 peptidomimetic macrocycles in rats.
First reader's note: Pharmacokinetic parameters in rats after IV dosing; the table is printed under a concentration-time plot that is not copied.

Series [2] has as its target GST-Bcl-2. In words: Kd. On the procedure:
Table printed on a drawing sheet, Figure 5
The patent's description of the figure: FIG. 5 depicts binding properties to GST-Bcl-2 of SP-4 and SP-54 peptidomimetic macrocycles.
First copying reader's note: Kd values belong to the plot beside the table, titled 'Saturation Binding Curves vs. 2 µM Receptor, 1x PBS + 5 mM CHAPS, 2.5% DMSO', with GST-Bcl-2 as the receptor.
Where the first naming reader finds the target: description_of_the_figure: FIG. 5 depicts binding properties to GST-Bcl-2 of SP-4 and SP-54 peptidomimetic macrocycles.

Series [3] deals with GST-Bcl-2. In words: Kd. On the procedure:
Table printed on a drawing sheet, Figure 8
The patent's description of the figure: FIG. 8 depicts binding properties to GST-Bcl-2 of SP-1 and SP-35 peptidomimetic macrocycles.
First copying reader's note: The Kd values belong to the plot beside the table, titled 'Saturation Binding Curves vs. 2 µM Receptor, 1x PBS + 5 mM CHAPS, 2.5% DMSO', whose legend names the receptor as GST-Bcl-2.
Where the first naming reader finds the target: description_of_the_figure: FIG. 8 depicts binding properties to GST-Bcl-2 of SP-1 and SP-35 peptidomimetic macrocycles.
This is another data set of the same source.

Series [4] can be described thus: Pepsin Stability: (E/S 1:50). An excerpt:
Table printed on a drawing sheet, Figure 12
Title: Pepsin Stability: (E/S 1:50)
The patent's description of the figure: FIG. 12 describes the comparative pepsin stability of SP-1 and SP-35 peptidomimetic macrocycles of the invention.
First reader's note: The title is printed over the plot below the table; the rate constants and half-lives describe degradation by pepsin, and the time points used are on the plot's Time (min) axis.

The nature of series [5]: Pharmacokinetics of SP-1 and SP-35 in Rat following IV dose. From the text: Table printed on a drawing sheet, Figure 18
Title: Pharmacokinetics of SP-1 and SP-35 in Rat following IV dose
The patent's description of the figure: FIG. 18 illustrates the pharmacokinetic properties of SP-1 and SP-35 peptidomimetic macrocycles in rats.
First reader's note: The title stands over the plot above the table and applies to both: rat, IV dose.

The next series deals with T2, GST-Bcl-XL (Homo sapiens, UniProt Q07817).
T2 construct: GST
T2 sequence (Q07817 whole entry, looked up): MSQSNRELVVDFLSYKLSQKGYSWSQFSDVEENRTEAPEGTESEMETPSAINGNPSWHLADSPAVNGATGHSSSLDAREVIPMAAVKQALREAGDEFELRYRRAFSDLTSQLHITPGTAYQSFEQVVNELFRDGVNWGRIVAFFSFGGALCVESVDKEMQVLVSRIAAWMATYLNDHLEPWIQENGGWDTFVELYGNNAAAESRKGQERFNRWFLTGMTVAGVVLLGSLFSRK
Put plainly: Kd. As for the experimental part:
Table printed on a drawing sheet, Figure 7
The patent's description of the figure: FIG. 7 depicts binding properties to GST-Bcl-XL of SP-1 and SP-35 peptidomimetic macrocycles.
First copying reader's note: The table stands beside a saturation binding plot (2 µM receptor, 1x PBS + 5 mM CHAPS, 2.5% DMSO) whose legend names GST-Bcl-xL as the receptor for both peptides.
Where the first naming reader finds the target: description_of_the_figure: FIG. 7 depicts binding properties to GST-Bcl-XL of SP-1 and SP-35 peptidomimetic macrocycles.

The values that follow come from patent publication US20110144303A1, “Biologically Active Peptidomimetic Macrocycles” (AILERON Therapeutics, Inc., priority 2008, published 2011).

Where two headings read alike, the source gives them in different places. Positions of bridges follow the written chain, without caps; N, C: chain ends. Non-standard residues stand in square brackets, D forms with d. Residues, ends and D or L forms follow the SMILES beside them. S5 = C=CCCC[C@](C)(N)C(=O)O; Nle = CCCC[C@H](N)C(=O)O

T1 sequence (Q07817 whole entry, species assumed): as the sequence (Q07817 whole entry, looked up) above

What is called Kd is the constant that tells how readily two partners part at equilibrium. A higher Kd goes with weaker binding. As a reminder, the Vss is a proportionality between amount in the body and measured concentration, not a real space. Higher therefore signals extensive tissue distribution. The term Vz denotes a proportionality between amount in the body and measured concentration, not a real space. A higher Vz goes with extensive tissue distribution. As usually defined, the Cmax is the highest concentration seen after dosing. By MRT is commonly meant the average time that molecules of a dose stay in the body. `CC[C@H](C)[C@H](NC(C)=O)C(=O)N[C@@H](Cc1c[nH]c2ccccc12)C(=O)N[C@H](C(=O)N[C@@H](C)C(=O)N[C@@H](CCC(N)=O)C(=O)N[C@@H](CCC(=O)O)C(=O)N[C@@H](CC(C)C)C(=O)N[C@@H](CCCNC(=N)N)C(=O)N[C@@]1(C)CCCC=CCCC[C@@](C)(C(=O)N[C@@H](Cc2ccccc2)C(=O)N[C@@H](CC(N)=O)C(=O)N[C@@H](C)C(=O)N[C@@H](Cc2ccc(O)cc2)C(=O)N[C@@H](Cc2ccc(O)cc2)C(=O)N[C@@H](C)C(=O)N[C@@H](CCCNC(=N)N)C(=O)N[C@@H](CCCNC(=N)N)C(N)=O)NC(=O)[C@H](CC(=O)O)NC(=O)CNC(=O)[C@H]([C@@H](C)CC)NC1=O)[C@@H](C)CC` [SP-4, Ac-IWIAQELR$IGD$FNAYYARR-NH2]: the “detection of the protein-ligand complex by ESI-MS after size-exclusion chromatography” value on Bcl-xL is listed as “detection of the protein-ligand complex”. The compound further had a Kd at GST-Mcl-1 of 7 nM. Also, in series [1], the “AUC,inf” value was determined as 38000 ng·h/mL, the “Cl” value is 1.37 mL/min/kg, the “Vss” value was 0.263 L/kg and the “Vz” value is 0.728 L/kg. In series [1] (rat, in vivo, iv), this compound returned a peak concentration (Cmax) of 18100 ng/mL and a mean residence time MRT of 3.1 h. Moreover, the Kd on GST-Bcl-2 [2] was determined as 26 nM.
A word on the half-life: it is the time needed for the level to fall by half in the phase considered. `CCCC[C@H](NC(=O)[C@]1(C)CCCC=CCCC[C@](C)(NC(=O)[C@H](C)NC(=O)[C@H](CC(C)C)NC(=O)[C@H](Cc2c[nH]cn2)NC(=O)[C@H](CCCNC(=N)N)NC(=O)[C@H](C)NC(=O)[C@@H](NC(=O)[C@H](CC(N)=O)NC(=O)[C@H](CCCNC(=N)N)NC(=O)[C@@H](NC(=O)[C@@H](NC(=O)[C@H](CC(=O)O)NC(C)=O)[C@@H](C)CC)[C@@H](C)CC)[C@@H](C)CC)C(=O)N[C@@H](C(C)C)C(=O)NCC(=O)N[C@@H](CC(=O)O)C(=O)N1)C(=O)N[C@@H](CC(=O)O)C(=O)N[C@@H](CCCNC(=N)N)C(=O)N[C@@H](CO)C(=O)N[C@H](C(N)=O)[C@@H](C)CC` [SP-1, Ac-DIIRNIARHLA$VGD$NleDRSI-NH2] (Ac-DIIRNIARHLA[S5]VGD[S5][Nle]DRSI-NH2; staple 12-16) yielded an equilibrium dissociation constant (Kd) at GST-Bcl-2 [3] of 1600 nM. Further, in series [4], the “K1 min^-1” value is 0.0084 min⁻¹ and the “half-life^1” value was 1.38 h. Further, in series [5], the “AUC,inf” value was 72000 ng·h/mL, the volume of distribution (Vss) is 0.098 L/kg and the distribution volume (Vz) was found to be 0.274 L/kg. Besides, in series [5] (rat, in vivo, iv), the highest concentration (Cmax) is 37000 ng/mL, the MRT turned out to be 2.2 h and the half-life is 4.3 h. This compound had an equilibrium dissociation constant (Kd) at GST-Bcl-XL of 43 nM.
